Test results as given in BindingDB's records for doi:10.1074/jbc.M809633200 (United States Army Medical Research Institute of Infectious …, 2009).

Target: T1, Receptor-type tyrosine-protein phosphatase C (Homo sapiens, UniProt P08575)
T1 sequence (P08575 whole entry): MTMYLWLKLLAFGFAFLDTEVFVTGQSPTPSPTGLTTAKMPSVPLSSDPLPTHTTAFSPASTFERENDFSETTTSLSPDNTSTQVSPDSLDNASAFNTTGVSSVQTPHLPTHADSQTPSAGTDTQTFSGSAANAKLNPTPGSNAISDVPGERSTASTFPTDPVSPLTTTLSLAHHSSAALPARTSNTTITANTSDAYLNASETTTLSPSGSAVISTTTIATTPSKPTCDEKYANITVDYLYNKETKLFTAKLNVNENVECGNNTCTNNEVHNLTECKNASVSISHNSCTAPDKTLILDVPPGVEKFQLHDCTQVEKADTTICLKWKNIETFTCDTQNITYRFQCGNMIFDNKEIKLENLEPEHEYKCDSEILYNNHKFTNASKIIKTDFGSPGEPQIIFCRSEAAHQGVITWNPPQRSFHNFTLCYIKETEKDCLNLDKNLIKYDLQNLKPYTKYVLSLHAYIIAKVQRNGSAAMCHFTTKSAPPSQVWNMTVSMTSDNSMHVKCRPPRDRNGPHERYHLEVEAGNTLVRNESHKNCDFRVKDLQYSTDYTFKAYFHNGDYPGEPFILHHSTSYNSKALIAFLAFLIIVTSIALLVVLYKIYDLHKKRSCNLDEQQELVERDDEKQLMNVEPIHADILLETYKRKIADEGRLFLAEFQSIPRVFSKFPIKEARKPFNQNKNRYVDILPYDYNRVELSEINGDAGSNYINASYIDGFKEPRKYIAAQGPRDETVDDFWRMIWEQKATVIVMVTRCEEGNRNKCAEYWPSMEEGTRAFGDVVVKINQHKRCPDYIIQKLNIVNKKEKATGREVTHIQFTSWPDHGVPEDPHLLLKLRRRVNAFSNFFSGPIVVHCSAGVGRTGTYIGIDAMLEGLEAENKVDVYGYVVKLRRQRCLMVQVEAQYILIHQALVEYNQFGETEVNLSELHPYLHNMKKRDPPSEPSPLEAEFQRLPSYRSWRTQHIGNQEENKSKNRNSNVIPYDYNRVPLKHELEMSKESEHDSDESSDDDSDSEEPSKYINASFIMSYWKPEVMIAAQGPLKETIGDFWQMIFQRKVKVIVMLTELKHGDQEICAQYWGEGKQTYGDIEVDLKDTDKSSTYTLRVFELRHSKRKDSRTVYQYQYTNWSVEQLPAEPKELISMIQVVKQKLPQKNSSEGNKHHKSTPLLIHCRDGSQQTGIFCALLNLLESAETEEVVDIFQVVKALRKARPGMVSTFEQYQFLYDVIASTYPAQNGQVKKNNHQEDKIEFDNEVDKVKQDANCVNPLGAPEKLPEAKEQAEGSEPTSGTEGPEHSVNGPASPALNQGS
Test: Phosphatase Activity Assay
Description: Protein phosphatases were purchased from Upstate Biotechnology (Lake Placid, NY).

Compared with `O=C1C(=O)c2ccccc2-c2ccccc21`, `O=C1C(=O)c2cccc([N+](=O)[O-])c2-c2ccccc21` [4-Nitro-phenanthrene-9,10 dione] is 20-fold higher in IC50: 300 nM for the first, 6000 nM for the second.

For `CC(C)(C)C(=O)Nc1ccc2c(c1)C(=O)C(=O)c1ccccc1-2` [N-(9,10-Dioxo-9,10-dihydro-phenanthrene-2-yl)-2,2-dimethyl-propionamide], the IC50 was 400 nM.
